Strand notation (5' to 3'): a small letter for the sugar, then the base; units joined by * are phosphorothioate-linked, units joined directly phosphodiester-linked; [ ] holds rarer units or linkages, { } end groups; capitals alone tell only the bases. e = 2'-O-(2-methoxyethyl) (MOE); [5mC] = 5-methylcytosine
Key:
[1] = test system: human hnRNP L (hsHNRNP L) mRNA; assay: 5-point dose response (DRC) of ASOs, hnRNP L mRNA by branched DNA assay in BE(2)-M17 cells; assay type: cell-based; conditions: 24 h; for max. upregulation [%] (MV normalized hsHNRNP L/hsGAPDH): Lipofectamine3000, highest 120 nM, four 4-fold dilutions, bDNA, negative controls set to 100%; for EC50: hsHNRNP L mRNA upregulation, XLfit
Description: Data were generated in biological quadruplicates. […] No significant decrease in hsGAPDH mRNA levels was observed.
Details and data are shown in Table 9A-9B, FIG. 24, and FIG. 25A-25E. In some cases, there was dose dependent hsHNRNP L on-target mRNA upregulation to varying degrees when cells were transfected with ASO compounds of interest.

hsHNRNP L mRNA = assay: Time-course experiment, ASOs at 30 nM, hnRNP L mRNA by bDNA in BE(2)-M17 cells; assay type: cell-based, Homo sapiens; conditions: 30 nM ASO, mock controls set to 100%, incubations 24 h, 48 h, 72 h, time point not given
Procedure: Lipofectamine3000 (LF3000) was again used as the transfection agent. The transfection mixture was prepared identically on three plates. […] In this case, no outliers were removed. Data were generated in biological quadruplicates.
FIG. 26 includes a comparison of results from this study next to results from Example 7. Observing the results after 24 h incubation, similar data from the analysis in Example 7 were reproduced here.

Row | Substance | max. upregulation [%] (MV normalized hsHNRNP L/hsGAPDH) [1] | EC50 [1] [nM] | MV normalized hsHNRNP L/hsGAPDH (hsHNRNP L mRNA) [%]
1 | Skip-6A-20: ASO CTGTATTTTCTCTTACCATTGG (SEQ ID NO: 69), fully 2′-MOE, 5′-methyl C, phosphorothioate; exon 6A (antisense e[5mC]*eT*eG*eT*eA*eT*eT*eT*eT*e[5mC]*eT*e[5mC]*eT*eT*eA*e[5mC]*e[5mC]*eA*eT*eT*eG*eG; listed as Homo sapiens) | 71.6 | 5.04 | 68.3
2 | Skip-6A-16: ASO CTTCAACAGTGAGTTAGCACAG (SEQ ID NO: 65), fully 2′-MOE, 5′-methyl C, phosphorothioate; exon 6A (antisense e[5mC]*eT*eT*e[5mC]*eA*eA*e[5mC]*eA*eG*eT*eG*eA*eG*eT*eT*eA*eG*e[5mC]*eA*e[5mC]*eA*eG; listed as Homo sapiens) | 61.6 | 4.93 | 53.2
3 | Skip-6A-15: ASO AGTGAGTTAGCACAGTTCTGAA (SEQ ID NO: 64), fully 2′-MOE, 5′-methyl C, phosphorothioate; exon 6A (antisense eA*eG*eT*eG*eA*eG*eT*eT*eA*eG*e[5mC]*eA*e[5mC]*eA*eG*eT*eT*e[5mC]*eT*eG*eA*eA; listed as Homo sapiens) | 55.8 | 7.45 | 63.4
4 | Skip-6A-1: ASO GTACACATCCGCTACAATTTTT (SEQ ID NO: 50), fully 2′-MOE, 5′-methyl C, phosphorothioate; upstream intron of hnRNP L exon 6A (antisense eG*eT*eA*e[5mC]*eA*e[5mC]*eA*eT*e[5mC]*e[5mC]*eG*e[5mC]*eT*eA*e[5mC]*eA*eA*eT*eT*eT*eT*eT; listed as Homo sapiens) | 9.1 | 15.2 | 13.0
5 | 5UTR-V1-3: ASO GCAGCAGCCTCCGCGACATGGC (SEQ ID NO: 49), fully 2′-MOE, 5′-methyl C, phosphorothioate; hnRNP L 5′ UTR (antisense eG*e[5mC]*eA*eG*e[5mC]*eA*eG*e[5mC]*e[5mC]*eT*e[5mC]*e[5mC]*eG*e[5mC]*eG*eA*e[5mC]*eA*eT*eG*eG*e[5mC]; listed as Homo sapiens) | 22.4 | – | –
6 | Skip-6A-13: ASO CAGTTCTGAAAGATGGCGTCCC (SEQ ID NO: 62), fully 2′-MOE, 5′-methyl C, phosphorothioate; exon 6A (antisense e[5mC]*eA*eG*eT*eT*e[5mC]*eT*eG*eA*eA*eA*eG*eA*eT*eG*eG*e[5mC]*eG*eT*e[5mC]*e[5mC]*e[5mC]; listed as Homo sapiens) | 53.3 | 3.97 | 56.0
7 | Skip-6A-5: ASO ATGGTTTTACAGTCATAAATAC (SEQ ID NO: 54), fully 2′-MOE, 5′-methyl C, phosphorothioate; upstream intron (antisense eA*eT*eG*eG*eT*eT*eT*eT*eA*e[5mC]*eA*eG*eT*e[5mC]*eA*eT*eA*eA*eA*eT*eA*e[5mC]; listed as Homo sapiens) | 41.6 | 7.25 | 67.3
8 | 5UTR-V1-1: ASO ATGGCGGCGCAGAACCCGCCTC (SEQ ID NO: 47), fully 2′-MOE, 5′-methyl C, phosphorothioate; hnRNP L 5′ UTR (antisense eA*eT*eG*eG*e[5mC]*eG*eG*e[5mC]*eG*e[5mC]*eA*eG*eA*eA*e[5mC]*e[5mC]*e[5mC]*eG*e[5mC]*e[5mC]*eT*e[5mC]; listed as Homo sapiens) | 11.4 | – | –
9 | Skip-6A-6: ASO TGCATCACATGGTTTTACAGTC (SEQ ID NO: 55), fully 2′-MOE, 5′-methyl C, phosphorothioate; upstream intron (antisense eT*eG*e[5mC]*eA*eT*e[5mC]*eA*e[5mC]*eA*eT*eG*eG*eT*eT*eT*eT*eA*e[5mC]*eA*eG*eT*e[5mC]; listed as Homo sapiens) | 65.1 | 6.23 | 81.7
10 | Skip-6A-18: ASO TACCATTGGACGCTTCAACAGT (SEQ ID NO: 67), fully 2′-MOE, 5′-methyl C, phosphorothioate; exon 6A (antisense eT*eA*e[5mC]*e[5mC]*eA*eT*eT*eG*eG*eA*e[5mC]*eG*e[5mC]*eT*eT*e[5mC]*eA*eA*e[5mC]*eA*eG*eT; listed as Homo sapiens) | 47.3 | 9.1 | 42.7
11 | Skip-6A-3: ASO TAAATACAAGTCACGGTACACA (SEQ ID NO: 52), fully 2′-MOE, 5′-methyl C, phosphorothioate; upstream intron (antisense eT*eA*eA*eA*eT*eA*e[5mC]*eA*eA*eG*eT*e[5mC]*eA*e[5mC]*eG*eG*eT*eA*e[5mC]*eA*e[5mC]*eA; listed as Homo sapiens) | 22.1 | 9.29 | 29.0
12 | Skip-6A-11: ASO ATGGCGTCCCATCAAACATACA (SEQ ID NO: 60), fully 2′-MOE, 5′-methyl C, phosphorothioate; exon 6A (antisense eA*eT*eG*eG*e[5mC]*eG*eT*e[5mC]*e[5mC]*e[5mC]*eA*eT*e[5mC]*eA*eA*eA*e[5mC]*eA*eT*eA*e[5mC]*eA; listed as Homo sapiens) | 47.8 | 7.93 | 38.3
13 | Skip-6A-12: ASO TGAAAGATGGCGTCCCATCAAA (SEQ ID NO: 61), fully 2′-MOE, 5′-methyl C, phosphorothioate; exon 6A (antisense eT*eG*eA*eA*eA*eG*eA*eT*eG*eG*e[5mC]*eG*eT*e[5mC]*e[5mC]*e[5mC]*eA*eT*e[5mC]*eA*eA*eA; listed as Homo sapiens) | 36.6 | 16.7 | 14.5
14 | Skip-6A-19: ASO TTCTCTTACCATTGGACGCTTC (SEQ ID NO: 68), fully 2′-MOE, 5′-methyl C, phosphorothioate; exon 6A (antisense eT*eT*e[5mC]*eT*e[5mC]*eT*eT*eA*e[5mC]*e[5mC]*eA*eT*eT*eG*eG*eA*e[5mC]*eG*e[5mC]*eT*eT*e[5mC]; listed as Homo sapiens) | 51.8 | 7.36 | 62.4
15 | Skip-6A-2: ASO AGTCACGGTACACATCCGCTAC (SEQ ID NO: 51), fully 2′-MOE, 5′-methyl C, phosphorothioate; upstream intron (antisense eA*eG*eT*e[5mC]*eA*e[5mC]*eG*eG*eT*eA*e[5mC]*eA*e[5mC]*eA*eT*e[5mC]*e[5mC]*eG*e[5mC]*eT*eA*e[5mC]; listed as Homo sapiens) | 7.2 | 18.5 | 1.8
16 | Skip-6A-9: ASO TCAAACATACACTGCGACCCTG (SEQ ID NO: 58), fully 2′-MOE, 5′-methyl C, phosphorothioate; upstream intron/exon (antisense eT*e[5mC]*eA*eA*eA*e[5mC]*eA*eT*eA*e[5mC]*eA*e[5mC]*eT*eG*e[5mC]*eG*eA*e[5mC]*e[5mC]*e[5mC]*eT*eG; listed as Homo sapiens) | 40.2 | 7.15 | 31.3
17 | Skip-6A-10: ASO GTCCCATCAAACATACACTGCG (SEQ ID NO: 59), fully 2′-MOE, 5′-methyl C, phosphorothioate; exon 6A (antisense eG*eT*e[5mC]*e[5mC]*e[5mC]*eA*eT*e[5mC]*eA*eA*eA*e[5mC]*eA*eT*eA*e[5mC]*eA*e[5mC]*eT*eG*e[5mC]*eG; listed as Homo sapiens) | 49.2 | 5.79 | 42.1
18 | Skip-6A-7: ASO GCGACCCTGCATCACATGGTTT (SEQ ID NO: 56), fully 2′-MOE, 5′-methyl C, phosphorothioate; upstream intron/exon (antisense eG*e[5mC]*eG*eA*e[5mC]*e[5mC]*e[5mC]*eT*eG*e[5mC]*eA*eT*e[5mC]*eA*e[5mC]*eA*eT*eG*eG*eT*eT*eT; listed as Homo sapiens) | 51.2 | 8.91 | 59.3
19 | 5UTR-V1-2: ASO TCCGCGACATGGCGGCGCAGAA (SEQ ID NO: 48), fully 2′-MOE, 5′-methyl C, phosphorothioate; hnRNP L 5′ UTR (antisense eT*e[5mC]*e[5mC]*eG*e[5mC]*eG*eA*e[5mC]*eA*eT*eG*eG*e[5mC]*eG*eG*e[5mC]*eG*e[5mC]*eA*eG*eA*eA; listed as Homo sapiens) | 16.2 | – | –
20 | Skip-6A-17: ASO TGGACGCTTCAACAGTGAGTTA (SEQ ID NO: 66), fully 2′-MOE, 5′-methyl C, phosphorothioate; exon 6A (antisense eT*eG*eG*eA*e[5mC]*eG*e[5mC]*eT*eT*e[5mC]*eA*eA*e[5mC]*eA*eG*eT*eG*eA*eG*eT*eT*eA; listed as Homo sapiens) | 46.9 | 10.6 | 64.5

From patent US20250290074A1, “TARGETED TREATMENT OF SPLICEOPATHY-INDUCED NEUROLOGICAL DISORDERS” (Auttx, LLC, priority 2022, published 2025)
